{"source": "BindingDB's records for patent US20250230147", "about": "(Genentech, 2025)", "key": {"[1]": {"target": "E3 ubiquitin-protein ligase CBL (Homo sapiens, UniProt P22681)", "assay": "Cbl-b and c-Cbl SPR Assay"}, "[2]": {"target": "E3 ubiquitin-protein ligase CBL-B (Homo sapiens, UniProt Q13191)", "sequence (Q13191 whole entry)": "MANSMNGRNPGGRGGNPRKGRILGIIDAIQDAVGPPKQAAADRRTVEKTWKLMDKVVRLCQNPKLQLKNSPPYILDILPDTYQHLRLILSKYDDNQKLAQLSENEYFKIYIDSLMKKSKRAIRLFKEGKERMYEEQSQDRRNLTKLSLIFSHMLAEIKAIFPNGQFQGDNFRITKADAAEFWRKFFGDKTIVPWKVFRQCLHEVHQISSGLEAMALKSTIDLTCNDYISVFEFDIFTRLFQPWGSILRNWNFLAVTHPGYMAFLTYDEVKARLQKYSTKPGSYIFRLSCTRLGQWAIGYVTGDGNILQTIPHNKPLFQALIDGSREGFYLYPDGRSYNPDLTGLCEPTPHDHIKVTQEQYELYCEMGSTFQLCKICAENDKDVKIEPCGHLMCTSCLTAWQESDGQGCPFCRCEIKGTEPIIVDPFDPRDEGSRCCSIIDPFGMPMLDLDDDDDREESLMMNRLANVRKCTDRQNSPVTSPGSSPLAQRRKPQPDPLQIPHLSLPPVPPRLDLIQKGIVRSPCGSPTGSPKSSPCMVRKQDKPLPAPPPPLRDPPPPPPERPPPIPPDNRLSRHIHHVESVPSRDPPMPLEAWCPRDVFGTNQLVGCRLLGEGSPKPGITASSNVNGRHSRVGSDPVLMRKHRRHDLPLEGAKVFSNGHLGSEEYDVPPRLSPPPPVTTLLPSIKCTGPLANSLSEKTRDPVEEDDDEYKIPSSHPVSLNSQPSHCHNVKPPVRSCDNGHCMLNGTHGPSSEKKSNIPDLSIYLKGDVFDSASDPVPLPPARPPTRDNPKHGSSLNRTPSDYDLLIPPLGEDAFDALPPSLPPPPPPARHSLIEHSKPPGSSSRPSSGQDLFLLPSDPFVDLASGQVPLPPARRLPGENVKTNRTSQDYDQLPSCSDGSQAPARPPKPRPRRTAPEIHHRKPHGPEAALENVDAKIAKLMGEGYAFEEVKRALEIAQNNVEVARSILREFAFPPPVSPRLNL", "assay": "Cbl-b and c-Cbl SPR Assay"}}}
{"smiles": "Cn1cnnc1[C@H](F)[C@](C)(F)c1cccc(N2Cc3c(cc(CN4CCC5(CC5)C4)cc3C(F)(F)F)C2=O)c1", "note": "[US20250230147, Compound 127]", "values": [{"measurement": "IC50", "setting": "[1]", "result": 170, "unit": "nM"}, {"measurement": "IC50", "setting": "[2]", "result": 77, "unit": "nM"}]}
{"smiles": "Cn1cnnc1[C@H](F)[C@@](C)(F)c1cccc(N2Cc3c(cc(CN4CCC5(CC5)C4)cc3C(F)(F)F)C2=O)c1", "note": "[US20250230147, Compound 128]", "values": [{"measurement": "IC50", "setting": "[1]", "result": 1600, "unit": "nM"}, {"measurement": "IC50", "setting": "[2]", "result": 480, "unit": "nM"}]}
{"smiles": "Cn1cnnc1[C@H](F)C1(c2cccc(N3Cc4c(Cl)cc(CNC5(C)CCC5)cc4C3=O)c2)COC1", "note": "[US20250230147, Compound 470]", "values": [{"measurement": "IC50", "setting": "[1]", "result": 8.5, "unit": "nM"}, {"measurement": "IC50", "setting": "[2]", "result": 12, "unit": "nM"}]}
{"smiles": "Cn1cnnc1[C@@H](F)[C@@](C)(F)c1cccc(N2Cc3c(cc(CN4CCC5(CC5)C4)cc3C(F)(F)F)C2=O)c1", "note": "[US20250230147, Compound 130]", "values": [{"measurement": "IC50", "setting": "[1]", "result": 13000, "unit": "nM"}, {"measurement": "IC50", "setting": "[2]", "result": 4000, "unit": "nM"}]}
{"smiles": "Cn1cnnc1[C@@H](F)[C@](C)(F)c1cccc(N2Cc3c(cc(CN4CCC5(CC5)C4)cc3C(F)(F)F)C2=O)c1", "note": "[US20250230147, Compound 129]", "values": [{"measurement": "IC50", "setting": "[1]", "result": 460, "unit": "nM"}, {"measurement": "IC50", "setting": "[2]", "result": 130, "unit": "nM"}]}
